According to PMC6001580, “Synthesis and molecular modelling studies of pyrimidinones and pyrrolo[3,4-d]-pyrimidinodiones as new antiplasmodial compounds” (Memórias do Instituto Oswaldo Cruz, 2018):
Several values for one entry are separate records, joined by “and”; a condition that tells them apart may be missing. Identical values can stand only once. Like-named read-outs stand apart in the source and are kept apart here.

Legend:
[1] = test system: P. berghei ANKA expressing green fluorescent protein (PbA-GFP); assay: In vivo activity evaluation against P. berghei (four-day test in mice); design: species or system Plasmodium berghei; details: Swiss mice, 30 mg/Kg orally for four consecutive days, vs untreated controls; for Reduction (%) of parasitaemia, Day eight: day eight after infection; for Reduction (%) of parasitaemia, Day five: day five after infection
From the text: In vivo activity evaluation against P. berghei - Swiss mice (Institute of Science and Technology in Biomodels - Fiocruz) were inoculated with 10^5 erythrocytes infected with P. berghei ANKA expressing green fluorescent protein (PbA-GFP, a donation from the malaria research and reference reagent resource centre -MR4, Manassas, VA; deposited by CJ Janse and AP Waters; MR4 number: MRA-865) intraperitoneally (day 1 of the experiment). Three hours after inoculation, the animals were randomly divided into five groups of mice. […] All of the test compounds and chloroquine were administered at a dose of 30 mg/kg, orally by gavage for four consecutive days. On days 5 and 8 after infection, flow cytometry was used to detect and count the number of parasitised red blood cells (RBC) that expressed GFP in relation to 10,000 RBCs, thus assessing the evolution of parasitaemia. […] The antimalarial activity was determined by the percentage reduction in parasitaemia of treated animals compared to untreated controls ([Peters et al. 1975]).

[2] = test system: BGM cells; assay: Cytotoxicity evaluation on mammalian cells (MTT); format: cell-based; details: 24 h, mean of three experiments
Description: Cytotoxicity evaluation on mammalian cells - BGM cells (originally acquired from ATCC (American Type Culture Collection), Manassas, VA, USA by the Federal University of Minas Gerais, Brazil, and donated by Dr Antoniana Krettli - Federal University of Minas Gerais) were cultured in 75 cm^2 sterile ﬂasks containing RPMI 1640 medium supplemented with 10% foetal bovine serum (FBS) at a concentration of 5 x 10^3 cells per millilitre in a 5% CO2 atmosphere at 37 °C. Cells were added with the test compounds in serial dilution. When the cell monolayer was confluent, it was trypsinised, washed with a culture medium distributed in a flat-bottomed 96-well plate (1 × 10^5 cells/mL) and incubated for 24 h at 37 °C to ensure cell adherence. Then, the drugs were added in serial dilution (1000-15 µM) and incubated for 24 h at 37 °C. Subsequently, the MTT salt, in a concentration of 3 mg/mL, was added after 3 h; then, the supernatant was removed, and the dye present on the bottom of the plate wells was dissolved in DMSO in a volume of 100 µL/well DMSO. The microplates were then read in an Espectramax 190 (Molecular Devices, USA) spectrophotometer, using the 570 nm filter. The determination of MDL50 was performed using a dose response curves nonlinear regression function ([Denizot and Lang 1986]).

[3] = test system: chloroquine-resistant Plasmodium falciparum W2 strain; assay: Antiplasmodial in vitro assay (HRPII sandwich ELISA, 72 h); format: cell-based; details: for IC50: Plasmodium falciparum, W2, 72 h; for SI (selectivity index): SI = MDL50 / IC50 (BGM cells vs P. falciparum W2)
From the text: Antiplasmodial in vitro assay - The cultivation of P. falciparum W2 strain (originating from Indochina and cultivated in the Malaria Research Laboratory, Oswaldo Cruz Foundation-Fiocruz), which is chloroquine-resistant, was made according to the protocol of [Trager and Jensen (1976)], using human erythrocytes (A^+) in an RPMI 1640 medium supplemented with human serum. Parasites were synchronised to obtain the young (ring) parasite forms ([Lambros and Vanderberg 1979]). Parasitaemia was adjusted to 0.05% and haematocrit to 1.5%. Subsequently, the cultures were placed in microplates with the drugs, previously diluted in dimethyl sulphoxide and medium (DMSO 0.02% v/v), to be tested in serial dilutions (50 - 0.78 µM), as well as positive controls (chloroquine in serial dilutions; 10 - 0.07 µM) and negative (no drug) controls. All the microplates were incubated for 72 h. The microplates were then subjected to three cycles of freezing and thawing; the parasite growth was measured through the quantification of histidine-rich protein II (HRPII) using specific monoclonal antibodies (MPFM ICLLAB-55A®, USA and MPFG55P ICLLAB®, USA) in sandwich ELISA ([Noedl et al. 2002]). Absorbance was read at 450 nm in an Espectramax 190 spectrophotometer (Molecular Devices, USA), and the determination of the IC50 was made using dose-response curves.

[4] = Hemolysis assay; format: cell-based; details: erythrocyte suspension (1% haematocrit), at 1000 μM, 37 °C, read-out: haemolysis
Description: Hemolysis assay - The haemolysis assay was performed according to the protocol described by [Wang et al. (2010)]. The compounds were dissolved in DMSO (0.5% v/v). Suspensions of erythrocytes (1% haematocrit) were incubated with the compounds at serial dilutions ranging from 15 to 1000 µM, at 37 °C for 30 min with a constant stirring. A 0.05% solution of saponin (Sigma-Aldrich) was used as a positive control of the test as it generated 100% haemolysis, and the suspension of erythrocytes in the medium was used as a negative control (blank). Following incubation, suspensions were centrifuged at 1000 g for 10 min, and the absorbance of the supernatants was measured at 540 nm using an Espectramax 190 spectrophotometer. The haemolysis rate of the samples was calculated as follows: % haemolysis = (sample absorbance - blank absorbance) x 100 / absorbance of the control with saponin.

[5] = P. falciparum W2 strain, 72 h, HRPII ELISA, mean of three experiments, read-out: IC50

IC50 [3, 5] | Compound | Reduction (%) of parasitaemia, Day eight [1] | Reduction (%) of parasitaemia, Day five [1] | MDL50 [2] | SI (selectivity index) [3] | hemolysis at 30 min, 1000 µM [4] | IC50 [3]
> 50 µM | COc1ccc(C2NC(=O)NC3=C2C(=O)N(Cc2ccccc2)C3)cc1OC (centres unmarked) [3k] |  |  | > 100 µM |  |  | 
> 50 µM | O=C1NC2=C(C(=O)N(Cc3ccccc3)C2)C(c2ccccc2)N1 (centres unmarked) [3a] |  |  | > 100 µM |  |  | 
> 50 µM | COc1ccccc1C1NC(=O)NC2=C1C(=O)N(Cc1ccccc1)C2 (centres unmarked) [3e] |  |  | > 100 µM |  |  | 
> 50 µM | O=C1NC2=C(C(=O)N(Cc3ccccc3)C2)C(c2ccc([N+](=O)[O-])cc2)N1 (centres unmarked) [3j] |  |  | > 100 µM |  |  | 
22 ± 0.08 µM | COc1ccccc1C1NC(=O)NC2=C1C(=O)N(CCc1ccccc1)C2 (centres unmarked) [2e] |  |  | 56 ± 1.83 µM | 2.5 |  | 
> 50 µM | O=C1NC2=C(C(=O)N(CCc3ccccc3)C2)C(c2ccc(Br)cc2)N1 (centres unmarked) [2f] |  |  | 18.6 ± 1.21 µM |  | 22.6% | 
> 50 µM | O=C1NC2=C(C(=O)N(CCc3ccccc3)C2)C(c2ccccc2Cl)N1 (centres unmarked) [2h] |  |  | > 100 µM |  |  | 
> 50 µM | O=C1NC2=C(C(=O)N(CCc3ccccc3)C2)C(c2cccc(Br)c2)N1 (centres unmarked) [2c] |  |  | 6.9 ± 0.97 µM |  | 12.3% | 
26 ± 1.15 µM | O=C1NC2=C(C(=O)N(Cc3ccccc3)C2)C(c2ccc(Br)cc2)N1 (centres unmarked) [3f] |  |  | > 100 µM | > 3.8 |  | 
26.7 ± 0.56 µM | O=C1NC2=C(C(=O)N(Cc3ccccc3)C2)C(c2ccccc2Cl)N1 (centres unmarked) [3h] |  |  | > 100 µM | > 3.8 |  | 
25.6 ± 0.09 µM | O=C1NC2=C(C(=O)N(CCc3ccccc3)C2)C(c2ccc([N+](=O)[O-])cc2)N1 (centres unmarked) [2j] |  |  | 8.9 ± 0.9 µM | 0.4 |  | 
> 50 µM | COc1cc(C2NC(=O)NC3=C2C(=O)N(CCc2ccccc2)C3)cc(OC)c1OC (centres unmarked) [2g] |  |  | 6.2 ± 0.73 µM | < 0.1 |  | 
45 ± 0.79 µM | O=C1NC2=C(C(=O)N(Cc3ccccc3)C2)C(c2ccc(Cl)cc2)N1 (centres unmarked) [3d] |  |  | 86 ± 1.27 µM | 1.9 |  | 
> 50 µM | COc1cc(C2NC(=O)NC3=C2C(=O)N(Cc2ccccc2)C3)cc(OC)c1OC (centres unmarked) [3g] |  |  | > 100 µM |  |  | 
26.4 ± 0.26 µM | COc1ccc(C2NC(=O)NC3=C2C(=O)N(CCc2ccccc2)C3)cc1 (centres unmarked) [2b] |  |  | 24.6 ± 1.23 µM | 0.93 | 21.7% | 
> 50 µM | O=C1NC2=C(C(=O)N(CCc3ccccc3)C2)C(c2ccccc2)N1 (centres unmarked) [2a] |  |  | > 100 µM |  |  | 
> 50 µM | COc1ccc(C2NC(=O)NC3=C2C(=O)N(Cc2ccccc2)C3)cc1 (centres unmarked) [3b] |  |  | > 100 µM |  |  | 
> 50 µM | COc1ccc(C2NC(=O)NC3=C2C(=O)N(Cc2ccccc2)C3)c(OC)c1 (centres unmarked) [3i] |  |  | > 100 µM |  |  | 

The next lines start with the compound.

Compound | IC50 [3, 5] | Reduction (%) of parasitaemia, Day eight [1] | Reduction (%) of parasitaemia, Day five [1] | MDL50 [2] | SI (selectivity index) [3] | hemolysis at 30 min, 1000 µM [4] | IC50 [3]
CCOC(=O)C1=C(CCl)NC(=O)NC1c1ccccc1Cl (centres unmarked) [1h] | 3.12 ± 0.06 µM | 55.2% | 0% | 77 µM and 77 ± 0.87 µM | 24.6 |  | 
CCOC(=O)C1=C(CCl)NC(=O)NC1c1ccccc1 (centres unmarked) [1a] | 6.38 ± 0.8 µM |  |  | 24.6 ± 0.03 µM | 3.9 |  | 
CCOC(=O)C1=C(CCl)NC(=O)NC1c1ccc(OC)cc1OC (centres unmarked) [1i] | 2.98 ± 0.18 µM |  |  | 9.7 ± 0.46 µM | 3.3 |  | 
CCOC(=O)C1=C(CCl)NC(=O)NC1c1ccc([N+](=O)[O-])cc1 (centres unmarked) [1j] | 6 ± 0.8 µM |  |  | 26.2 ± 1.1 µM | 4.4 |  | 
CCOC(=O)C1=C(CCl)NC(=O)NC1c1ccc(OC)cc1 (centres unmarked) [1b] |  | 33.8% | 0% | 57 µM and 57 ± 0.65 µM | 19 |  | 
CCN(CC)CCCC(C)Nc1ccnc2cc(Cl)ccc12 (centres unmarked) [Chloroquine, reference compound] |  | 100% | 97.2% |  |  |  | 0.55 ± 0.09 µM
CCOC(=O)C1=C(CCl)NC(=O)NC1c1ccc(Cl)cc1 (centres unmarked) [1d] | 1.96 ± 0.21 µM |  |  | 2.5 ± 0.93 µM | 1.3 | 3.6% | 
CCOC(=O)C1=C(CCl)NC(=O)NC1c1cccc(Br)c1 (centres unmarked) [1c] | 6.17 ± 0.02 µM |  |  | 21.7 ± 1.24 µM | 3.5 |  | 
CCOC(=O)C1=C(CCl)NC(=O)NC1c1ccc(Br)cc1 (centres unmarked) [1f] | 1.76 ± 0.27 µM | 60.9% | 9.1% | 22 µM and 22 ± 0.56 µM | 12.5 | 0.95% | 
CCOC(=O)C1=C(CCl)NC(=O)NC1c1cc(OC)c(OC)c(OC)c1 (centres unmarked) [1g] | 24.1 ± 1.2 µM |  |  | 21.7 ± 1.15 µM | 0.9 |  | 
CCOC(=O)C1=C(CCl)NC(=O)NC1c1ccccc1OC (centres unmarked) [1e] |  |  |  | 23.8 ± 0.6 µM | 1.95 |  | 
CCOC(=O)C1=C(CCl)NC(=O)NC1c1ccc(OC)c(OC)c1 (centres unmarked) [1k] | 3 ± 0.25 µM |  |  | 24.5 ± 0.09 µM | 8.2 |  | 
CCOC(=O)C1=C(CCl)NC(=O)NC1c1ccc(O)c(OC)c1 (centres unmarked) [1l] | 3 µM |  |  |  |  |  | 
